Measurements: patent publication US9309242B2, “Substituted pyrido[2,3-b]pyrazines as FGFR kinase inhibitors” (priority 2011, dated 2016)

Tests used:
FGFR1 (h) = FGFR1 (h) (Homo sapiens, UniProt P11362); experiment: FGFR1 (enzymatic assay), TR-FRET; assay type: biochemical; conditions: read-out: FGFR 1 pIC50 (converted)
FGFR3 (h) = FGFR3 (h) (Homo sapiens, UniProt P22607); experiment: FGFR3 (enzymatic assay), TR-FRET; assay type: biochemical; conditions: read-out: FGFR 3 pIC50 (converted)
From the text: Time-Resolved Fluorescence Resonance Energy Transfer (TR-FRET) signal (ex340 nm.

FGFR4 (h) = FGFR4 (h) (Homo sapiens, UniProt P22455); experiment: FGFR4 (enzymatic assay), TR-FRET; assay type: biochemical; conditions: FGFR 4 pIC50, enzymatic assay
[1] = molecular target: T1, Ba/F3-FGFR1-transfected cells (Homo sapiens, UniProt P11362); experiment: Ba/F3-FGFR1 (minus IL3) cellular proliferation assay, Alamar Blue; assay type: cell-based
T1 construct: BAF3-FGFR1 (MIN IL3) pIC50; other: minus IL3
T1 sequence (P11362 whole entry, change not shown): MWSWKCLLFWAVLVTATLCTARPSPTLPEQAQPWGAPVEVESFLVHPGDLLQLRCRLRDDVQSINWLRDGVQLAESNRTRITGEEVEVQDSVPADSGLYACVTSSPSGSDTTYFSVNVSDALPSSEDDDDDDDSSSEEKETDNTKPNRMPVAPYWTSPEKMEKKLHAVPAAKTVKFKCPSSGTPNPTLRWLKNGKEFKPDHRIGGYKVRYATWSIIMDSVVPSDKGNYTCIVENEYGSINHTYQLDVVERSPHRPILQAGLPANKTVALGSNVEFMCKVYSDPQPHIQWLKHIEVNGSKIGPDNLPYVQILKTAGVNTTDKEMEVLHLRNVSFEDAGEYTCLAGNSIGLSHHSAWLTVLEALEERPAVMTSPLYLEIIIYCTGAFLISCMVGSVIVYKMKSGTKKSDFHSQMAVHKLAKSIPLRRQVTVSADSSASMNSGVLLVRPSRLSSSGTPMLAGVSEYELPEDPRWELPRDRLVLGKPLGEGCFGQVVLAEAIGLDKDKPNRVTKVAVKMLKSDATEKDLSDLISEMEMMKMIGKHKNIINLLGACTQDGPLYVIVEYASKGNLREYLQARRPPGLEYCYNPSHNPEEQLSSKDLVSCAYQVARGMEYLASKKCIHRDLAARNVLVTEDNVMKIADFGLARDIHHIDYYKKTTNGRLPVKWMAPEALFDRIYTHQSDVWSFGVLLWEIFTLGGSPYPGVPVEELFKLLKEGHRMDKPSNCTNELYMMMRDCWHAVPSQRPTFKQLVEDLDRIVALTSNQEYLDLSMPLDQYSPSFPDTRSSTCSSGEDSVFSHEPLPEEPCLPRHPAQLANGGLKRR
Procedure, shortened: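 Ba/F3-FGFR1 cells (20000 per well) were exposed to compound for 24 h at 37 °C in RPMI-1640 with 10% FBS. Alamar Blue (resazurin) was then added for 4 h, and fluorescence was read at ex 540/em 590 nm.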

[2] = molecular target: T2, Ba/F3-FGFR3-transfected cells (Homo sapiens, UniProt P22607); experiment: Ba/F3-FGFR3 (minus IL3) cellular proliferation assay, Alamar Blue; assay type: cell-based
T2 construct: BAF3-FGFR3 (MIN IL3) pIC50; other: minus IL3
T2 sequence (P22607 whole entry, change not shown): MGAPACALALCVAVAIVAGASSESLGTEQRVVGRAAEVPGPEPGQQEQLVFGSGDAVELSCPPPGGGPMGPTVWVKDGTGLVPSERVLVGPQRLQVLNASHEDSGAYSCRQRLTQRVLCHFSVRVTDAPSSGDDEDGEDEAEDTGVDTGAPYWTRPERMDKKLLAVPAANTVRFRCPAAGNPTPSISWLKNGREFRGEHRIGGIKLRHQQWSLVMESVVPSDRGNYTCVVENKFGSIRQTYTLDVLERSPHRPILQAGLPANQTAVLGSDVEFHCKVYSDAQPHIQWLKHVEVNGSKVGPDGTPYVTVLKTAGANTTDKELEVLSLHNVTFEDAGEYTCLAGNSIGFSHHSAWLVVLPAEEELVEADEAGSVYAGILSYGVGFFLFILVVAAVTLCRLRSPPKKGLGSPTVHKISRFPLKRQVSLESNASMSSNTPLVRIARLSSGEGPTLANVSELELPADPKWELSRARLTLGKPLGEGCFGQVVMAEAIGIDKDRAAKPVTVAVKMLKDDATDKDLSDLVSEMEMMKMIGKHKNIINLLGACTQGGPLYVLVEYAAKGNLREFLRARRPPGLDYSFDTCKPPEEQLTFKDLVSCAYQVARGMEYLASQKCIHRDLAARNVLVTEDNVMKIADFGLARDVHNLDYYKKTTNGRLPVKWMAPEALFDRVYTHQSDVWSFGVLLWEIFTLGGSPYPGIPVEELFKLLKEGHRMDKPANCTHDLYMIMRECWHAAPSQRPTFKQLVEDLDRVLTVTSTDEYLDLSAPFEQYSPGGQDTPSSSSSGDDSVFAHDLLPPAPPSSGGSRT
Procedure, shortened: (§1)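 Ba/F3 cells transfected with FGFR3, 20000/well in phenol red-free RPMI-1640 with 10% FBS, exposed to compound for 24 h at 37 °C, 5% CO2. Alamar Blue (resazurin) added for 4 h more; fluorescence read at ex 540/em 590 nm. Counterscreen run the same way with 10 ng/ml murine IL3.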

[3] = system: Ba/F3-FGFR3-transfected cells; experiment: Ba/F3-FGFR3 (plus IL3) cellular proliferation assay, counterscreen with 10 ng/ml murine IL3; assay type: cell-based; conditions: plus IL3 (10 ng/ml murine IL3, counterscreen); read-out: BAF3-FGFR3 (PLUS IL3) pIC50 (converted)
Procedure, shortened: as §1

[4] = molecular target: T3, Ba/F3-KDR-transfected cells (Homo sapiens, UniProt P35968); experiment: Ba/F3-KDR (minus IL3) cellular proliferation assay, Alamar Blue; assay type: cell-based
T3 construct: BAF3-KDR (MIN IL3) pIC50; other: minus IL3
T3 sequence (P35968 whole entry, change not shown): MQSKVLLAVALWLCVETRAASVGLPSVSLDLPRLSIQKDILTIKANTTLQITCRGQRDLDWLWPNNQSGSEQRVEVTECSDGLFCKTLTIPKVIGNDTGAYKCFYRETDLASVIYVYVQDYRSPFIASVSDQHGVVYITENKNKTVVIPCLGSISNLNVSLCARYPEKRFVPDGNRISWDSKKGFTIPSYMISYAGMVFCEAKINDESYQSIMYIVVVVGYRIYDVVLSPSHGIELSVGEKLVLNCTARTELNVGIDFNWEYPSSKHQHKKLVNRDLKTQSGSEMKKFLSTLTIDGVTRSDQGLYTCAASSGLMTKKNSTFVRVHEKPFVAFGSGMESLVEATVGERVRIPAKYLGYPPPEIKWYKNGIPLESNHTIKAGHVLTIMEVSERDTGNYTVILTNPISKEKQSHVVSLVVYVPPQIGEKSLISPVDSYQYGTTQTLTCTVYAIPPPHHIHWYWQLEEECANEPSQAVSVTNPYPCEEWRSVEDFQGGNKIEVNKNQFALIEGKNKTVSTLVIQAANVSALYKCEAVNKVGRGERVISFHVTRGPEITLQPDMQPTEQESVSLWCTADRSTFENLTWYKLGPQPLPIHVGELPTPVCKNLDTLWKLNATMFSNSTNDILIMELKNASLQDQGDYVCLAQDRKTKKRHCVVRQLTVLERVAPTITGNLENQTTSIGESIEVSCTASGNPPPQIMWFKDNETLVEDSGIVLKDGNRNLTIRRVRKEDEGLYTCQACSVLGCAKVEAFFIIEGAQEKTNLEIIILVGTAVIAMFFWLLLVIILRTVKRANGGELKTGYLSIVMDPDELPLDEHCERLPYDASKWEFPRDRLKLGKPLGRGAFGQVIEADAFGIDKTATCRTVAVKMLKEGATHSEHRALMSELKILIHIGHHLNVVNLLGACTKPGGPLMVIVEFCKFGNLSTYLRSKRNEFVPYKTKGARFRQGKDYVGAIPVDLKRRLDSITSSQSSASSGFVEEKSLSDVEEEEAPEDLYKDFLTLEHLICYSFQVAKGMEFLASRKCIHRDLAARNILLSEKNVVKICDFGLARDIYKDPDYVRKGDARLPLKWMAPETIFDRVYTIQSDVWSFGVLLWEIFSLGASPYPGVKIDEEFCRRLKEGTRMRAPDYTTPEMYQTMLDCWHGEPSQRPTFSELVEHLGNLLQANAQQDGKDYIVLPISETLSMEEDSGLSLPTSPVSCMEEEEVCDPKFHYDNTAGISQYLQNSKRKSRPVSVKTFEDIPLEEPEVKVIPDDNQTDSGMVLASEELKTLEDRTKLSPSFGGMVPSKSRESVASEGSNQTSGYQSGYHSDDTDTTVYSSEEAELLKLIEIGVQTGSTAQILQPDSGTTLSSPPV
Procedure, shortened: (§2)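 Ba/F3-KDR-transfected cells, 20000 per well in phenol red free RPMI-1640 with 10% FBS, exposed to compound 24 hours at 37° C, 5% CO2; Alamar Blue then added for 4 hours and fluorescence read (ex. 540 nm, em. 590 nm). Plus-IL3 counterscreen run identically with 10 ng/ml murine IL3.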

[5] = system: Ba/F3-KDR-transfected cells; experiment: Ba/F3-KDR (plus IL3) cellular proliferation assay, counterscreen with 10 ng/ml murine IL3; assay type: cell-based; conditions: plus IL3 (10 ng/ml murine IL3, counterscreen); read-out: BAF3-KDR (PLUS IL3) pIC50 (converted)
Procedure, shortened: as §2

[6] = molecular target: Ba/F3-FGFR4-transfected cells (Homo sapiens, UniProt P22455); experiment: Ba/F3-FGFR4 cellular proliferation assay, Alamar Blue; assay type: cell-based
Chain of Ba/F3-FGFR4-transfected cells (P22455 whole entry, change not shown): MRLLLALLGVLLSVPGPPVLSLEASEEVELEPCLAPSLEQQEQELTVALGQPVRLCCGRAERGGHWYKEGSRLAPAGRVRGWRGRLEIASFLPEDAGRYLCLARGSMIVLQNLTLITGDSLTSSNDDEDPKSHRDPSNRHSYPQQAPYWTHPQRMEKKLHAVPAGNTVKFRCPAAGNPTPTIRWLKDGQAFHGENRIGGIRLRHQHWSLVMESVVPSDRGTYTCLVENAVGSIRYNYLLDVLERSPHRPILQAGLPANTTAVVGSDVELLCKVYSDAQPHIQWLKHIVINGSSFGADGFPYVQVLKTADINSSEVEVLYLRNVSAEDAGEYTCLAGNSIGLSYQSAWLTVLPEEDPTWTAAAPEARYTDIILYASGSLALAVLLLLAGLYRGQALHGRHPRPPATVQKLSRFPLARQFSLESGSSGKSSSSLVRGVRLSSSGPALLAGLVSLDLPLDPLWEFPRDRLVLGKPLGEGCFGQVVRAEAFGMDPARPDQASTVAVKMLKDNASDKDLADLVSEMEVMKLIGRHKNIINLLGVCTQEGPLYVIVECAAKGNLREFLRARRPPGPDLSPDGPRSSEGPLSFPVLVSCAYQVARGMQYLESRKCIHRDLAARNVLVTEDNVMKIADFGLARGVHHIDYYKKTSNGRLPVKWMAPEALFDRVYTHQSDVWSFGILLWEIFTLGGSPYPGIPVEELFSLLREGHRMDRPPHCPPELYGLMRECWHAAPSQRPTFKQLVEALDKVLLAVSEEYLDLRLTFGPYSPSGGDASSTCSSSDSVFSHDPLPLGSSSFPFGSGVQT
Procedure, shortened: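 Ba/F3-FGFR4 cells (20000/well) in phenol red-free RPMI-1640 with 10% FBS are exposed to compound for 24 h at 37 °C, 5% CO2. Alamar Blue (resazurin) is then added for 4 h and fluorescence read at ex 540/em 590 nm.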

Chain of FGFR3 (h) (P22607 23-806): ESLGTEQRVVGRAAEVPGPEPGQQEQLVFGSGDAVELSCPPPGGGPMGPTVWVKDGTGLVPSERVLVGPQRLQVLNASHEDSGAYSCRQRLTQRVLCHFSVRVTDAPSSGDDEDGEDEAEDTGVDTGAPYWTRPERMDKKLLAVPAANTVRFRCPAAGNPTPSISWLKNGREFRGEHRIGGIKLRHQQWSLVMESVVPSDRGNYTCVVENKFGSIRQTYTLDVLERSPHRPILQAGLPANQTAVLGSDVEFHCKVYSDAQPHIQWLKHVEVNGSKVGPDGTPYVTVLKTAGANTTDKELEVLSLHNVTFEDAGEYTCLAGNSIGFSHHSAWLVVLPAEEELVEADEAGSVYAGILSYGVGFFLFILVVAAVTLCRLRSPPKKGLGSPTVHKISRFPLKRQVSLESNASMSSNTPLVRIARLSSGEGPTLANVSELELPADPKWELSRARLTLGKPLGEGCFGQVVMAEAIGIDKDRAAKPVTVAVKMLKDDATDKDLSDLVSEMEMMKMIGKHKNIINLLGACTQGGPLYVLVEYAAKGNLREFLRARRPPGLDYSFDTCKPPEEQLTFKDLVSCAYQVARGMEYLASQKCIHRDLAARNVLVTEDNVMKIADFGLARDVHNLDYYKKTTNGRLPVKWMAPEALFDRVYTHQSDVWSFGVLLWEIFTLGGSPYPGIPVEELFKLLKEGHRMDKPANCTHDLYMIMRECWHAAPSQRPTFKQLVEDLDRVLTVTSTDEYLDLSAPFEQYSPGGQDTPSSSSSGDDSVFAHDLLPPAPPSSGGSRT

| Compound | IC50 (FGFR1 (h)) [nM] | IC50 (FGFR3 (h)) [nM] | IC50 (FGFR4 (h)) [nM] | BAF3-FGFR1 (MIN IL3) pIC50 [1] | BAF3-FGFR3 (MIN IL3) pIC50 [2] | IC50 [3] [nM] | BAF3-KDR (MIN IL3) pIC50 [4] | IC50 [5] [nM] | BAF3-FGFR4 pIC50 [6] |
| --- | --- | --- | --- | --- | --- | --- | --- | --- | --- |
| COc1cc(OC)cc(N(CCO)c2ccc3ncc(-c4ccncc4)nc3n2)c1 [Compound 213] | 4.27 | 3.8 | 25.1 | 6.57 | ~6.7 | > 10000 | 5.01 | > 10000 | 6.15 |
| COC(=O)CN(c1ccc2ncc(-c3cnn(C)c3)nc2n1)c1cc(OC)cc(OC)c1F [Compound 214] | 2.4 | 2.4 | 11.2 | 7.08 | ~7.18 | > 10000 | 5.31 | > 10000 | 6.52 |
| COc1cc(OC)c(F)c(N(Cc2ncc[nH]2)c2ccc3ncc(N4CCOCC4)nc3n2)c1F [Compound 215] | 0.741 | ~1.26 | 2.14 | 8.25 | 8.18 | > 10000 | 5.91 | > 10000 | 7.54 |
| COc1cc(OC)cc(N(Cc2nnco2)c2ccc3ncc(-c4cnn(C)c4)nc3n2)c1 [Compound 217] | 7.94 | 3.89 | 23.4 | 6.59 | ~6.68 | > 10000 | 5.18 | > 10000 | 6.03 |
| COc1cc(OC)c(F)c(N(Cc2nc(OC)cc(OC)n2)c2ccc3ncc(-c4cnn(C)c4)nc3n2)c1 [Compound 220] | 4.17 | 9.33 | 29.5 | 6.32 | 5.91 | > 10000 | 5.22 | > 10000 | 5.83 |
| COc1cc(OC)c(F)c(N(CCNC2COC2)c2ccc3ncc(-c4cnn(C)c4)nc3n2)c1 [Compound 221] | 1.51 | 0.891 | 6.61 | 7.53 | ~7.67 | > 10000 | 6.11 | > 10000 | 6.98 |
| COc1cc(OC)c(F)c(N(CCN(C2COC2)C2COC2)c2ccc3ncc(-c4cnn(C)c4)nc3n2)c1 [Compound 222] | 2.24 | 3.89 | 15.5 | 7.12 | ~7.19 | > 10000 | 5.68 | > 10000 | 6.55 |
| CCn1cc(-c2cnc3ccc(N(Cc4ncc[nH]4)c4cc(OC)cc(OC)c4F)nc3n2)cn1 [Compound 223] | 0.55 | 1.23 | 1.29 | 8.85 | ~8.58 | > 10000 | 6.81 | > 10000 | 7.95 |
| COc1cc(OC)c(F)c(N(CC(=O)c2cnn(C)c2)c2ccc3ncc(-c4cnn(C)c4)nc3n2)c1 [Compound 225] | 6.61 | 7.76 | 36.3 | 6.41 | 6.29 | > 10000 | 5.17 | > 10000 | 5.96 |
| COc1cc(OC)cc(N(Cc2ncc[nH]2)c2ccc3ncc(-c4cnn(C5CCNCC5)c4)nc3n2)c1 [Compound 227] | 0.562 | 0.891 | 1.82 | 7.73 | 7.63 | > 10000 | 5.79 | > 10000 | 6.91 |
